Assay [1] deals with T1, Amine oxidase [flavin-containing] A (Homo sapiens, UniProt P21397).
T1 sequence (P21397 whole entry): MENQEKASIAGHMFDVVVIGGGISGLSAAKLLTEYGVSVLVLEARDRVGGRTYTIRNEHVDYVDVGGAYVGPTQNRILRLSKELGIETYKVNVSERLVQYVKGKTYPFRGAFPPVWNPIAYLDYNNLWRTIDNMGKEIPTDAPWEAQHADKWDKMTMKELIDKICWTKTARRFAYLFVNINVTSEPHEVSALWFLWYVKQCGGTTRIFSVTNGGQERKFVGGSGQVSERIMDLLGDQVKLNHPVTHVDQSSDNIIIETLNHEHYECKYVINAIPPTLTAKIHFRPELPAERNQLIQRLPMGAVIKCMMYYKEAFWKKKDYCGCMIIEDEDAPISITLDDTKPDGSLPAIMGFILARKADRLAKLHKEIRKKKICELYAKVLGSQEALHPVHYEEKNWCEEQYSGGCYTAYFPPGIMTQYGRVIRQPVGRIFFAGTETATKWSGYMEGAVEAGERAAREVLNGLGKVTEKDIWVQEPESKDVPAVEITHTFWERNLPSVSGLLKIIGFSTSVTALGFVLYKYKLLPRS
The experiment in a line: DRUGMATRIX: Monoamine Oxidase MAO-A enzyme inhibition (substrate: Kynuramine). The settings on record: bti-tn-5b1-4; Not Active = under 50% inhibition at 10 µM. Further details: species or system BTI-TN-5B1-4.

A further assay has as its target D(3) dopamine receptor (Homo sapiens, UniProt P35462). Briefly: DRUGMATRIX: Dopamine D3 radioligand binding (ligand: [3H] Spiperone). The format is cell membranes, CHO, Membrane. The conditions noted are these: cho.
Assay [2] concerns the target Sigma non-opioid intracellular receptor 1 (Homo sapiens, UniProt Q99720). The experiment in a line: DRUGMATRIX: Sigma1 radioligand binding (ligand: [3H] Haloperidol). The format is cell membranes, Jurkat, Membrane. The conditions noted are these: jurkat; Not Active = under 50% inhibition at 10 µM.
For assay [3], the target named is Tyrosine-protein kinase Fyn (Homo sapiens, UniProt P06241). The experiment in a line: biochemical. The conditions noted are these: read-out: IC50. The format is cell-based, Insect cells.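 Further: enzymatic inhibition of Fyn kinase activity measured with Poly(Glu:Tyr) as the phosphorylation substrate; in other assays of this panel Not Active means under 50% inhibition at 10 µM.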
The target of assay [4] is cGMP-specific 3',5'-cyclic phosphodiesterase (Homo sapiens, UniProt O76074). Briefly: DRUGMATRIX: Phosphodiesterase PDE5 enzyme inhibition (substrate: [3H]cGMP + cGMP). The format is tissue-based. The conditions noted are these: platelet; Not Active = under 50% inhibition at 10 µM.
Assay [5] has as its target 5-hydroxytryptamine receptor 4 (Cavia porcellus, UniProt O70528). The format is cell membranes, Dunkin-Hartley, Striatum, Membrane. Further: in other assays of this panel Not Active means under 50% inhibition at 10 µM.
For assay [6], the target named is T2, 5-hydroxytryptamine receptor 1A (Rattus norvegicus, UniProt P19327). Further: in other assays of this panel Not Active means under 50% inhibition at 10 µM.
T2 sequence (P19327 whole entry): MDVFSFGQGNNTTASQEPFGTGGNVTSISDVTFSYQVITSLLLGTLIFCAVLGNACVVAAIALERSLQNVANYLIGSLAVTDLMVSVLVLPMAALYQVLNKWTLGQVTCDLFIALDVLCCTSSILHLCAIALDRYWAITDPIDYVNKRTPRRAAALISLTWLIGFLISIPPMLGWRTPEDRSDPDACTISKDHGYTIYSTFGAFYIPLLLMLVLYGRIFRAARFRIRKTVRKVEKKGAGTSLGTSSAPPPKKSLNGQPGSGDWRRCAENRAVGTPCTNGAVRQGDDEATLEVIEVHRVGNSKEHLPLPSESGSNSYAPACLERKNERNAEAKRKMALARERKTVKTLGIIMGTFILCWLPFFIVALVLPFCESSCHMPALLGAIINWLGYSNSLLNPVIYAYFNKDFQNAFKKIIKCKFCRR
The format is cell membranes, Membrane. The conditions noted are these: cho-k1.

Assay [7] can be described thus: DRUGMATRIX: Calcium Channel Type L, Benzothiazepine radioligand binding (ligand: [3H] Diltiazem). The format is cell membranes, Rattus norvegicus, Wistar, Brain, Membrane. The conditions noted are these: Not Active = under 50% inhibition at 10 µM.
The nature of assay [8]: DRUGMATRIX: Nicotinic Acetylcholine radioligand binding (ligand: [125I] Epibatidine). The conditions noted are these: imr-32; Not Active = under 50% inhibition at 10 µM. The format is cell membranes, Membrane.

The text below walks through data of ChEMBL document CHEMBL1909046, “DrugMatrix in vitro pharmacology data”.

The term IC50 denotes the concentration that inhibits the measured activity by half.

Tyrosine-protein kinase Fyn, sequence (P06241 whole entry): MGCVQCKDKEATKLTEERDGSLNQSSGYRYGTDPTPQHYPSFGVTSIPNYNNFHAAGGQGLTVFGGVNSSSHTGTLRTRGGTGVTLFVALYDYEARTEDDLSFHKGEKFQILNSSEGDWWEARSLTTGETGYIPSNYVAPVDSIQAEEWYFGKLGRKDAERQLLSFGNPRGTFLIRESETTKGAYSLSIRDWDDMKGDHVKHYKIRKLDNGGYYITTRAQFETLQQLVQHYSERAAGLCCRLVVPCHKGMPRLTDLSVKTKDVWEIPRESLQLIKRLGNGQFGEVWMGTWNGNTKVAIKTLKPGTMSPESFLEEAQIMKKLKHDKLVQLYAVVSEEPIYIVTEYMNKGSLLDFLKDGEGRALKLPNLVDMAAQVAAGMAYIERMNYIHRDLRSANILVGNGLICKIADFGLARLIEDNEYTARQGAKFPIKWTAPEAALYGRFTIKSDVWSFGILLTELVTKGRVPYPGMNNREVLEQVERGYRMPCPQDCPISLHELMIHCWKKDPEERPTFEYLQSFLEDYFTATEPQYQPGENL
Sigma non-opioid intracellular receptor 1, sequence (Q99720 whole entry): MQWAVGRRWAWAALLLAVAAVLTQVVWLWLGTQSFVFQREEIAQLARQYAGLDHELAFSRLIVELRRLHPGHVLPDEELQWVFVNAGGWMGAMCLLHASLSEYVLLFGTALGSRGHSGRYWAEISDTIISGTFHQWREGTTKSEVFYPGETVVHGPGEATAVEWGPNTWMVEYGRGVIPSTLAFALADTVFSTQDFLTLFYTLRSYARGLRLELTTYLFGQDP
5-hydroxytryptamine receptor 4, sequence (O70528 whole entry): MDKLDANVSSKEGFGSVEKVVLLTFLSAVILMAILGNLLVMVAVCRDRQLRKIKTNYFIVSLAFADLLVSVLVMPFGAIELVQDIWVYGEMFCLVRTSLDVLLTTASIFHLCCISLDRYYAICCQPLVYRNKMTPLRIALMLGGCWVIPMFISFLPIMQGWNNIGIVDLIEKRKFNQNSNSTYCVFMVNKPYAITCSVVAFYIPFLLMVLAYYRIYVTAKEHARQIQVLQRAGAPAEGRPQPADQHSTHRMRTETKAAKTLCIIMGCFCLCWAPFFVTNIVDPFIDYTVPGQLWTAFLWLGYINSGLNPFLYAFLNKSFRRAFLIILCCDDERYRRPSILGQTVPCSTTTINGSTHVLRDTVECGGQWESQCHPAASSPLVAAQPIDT
D(3) dopamine receptor, sequence (P35462 whole entry): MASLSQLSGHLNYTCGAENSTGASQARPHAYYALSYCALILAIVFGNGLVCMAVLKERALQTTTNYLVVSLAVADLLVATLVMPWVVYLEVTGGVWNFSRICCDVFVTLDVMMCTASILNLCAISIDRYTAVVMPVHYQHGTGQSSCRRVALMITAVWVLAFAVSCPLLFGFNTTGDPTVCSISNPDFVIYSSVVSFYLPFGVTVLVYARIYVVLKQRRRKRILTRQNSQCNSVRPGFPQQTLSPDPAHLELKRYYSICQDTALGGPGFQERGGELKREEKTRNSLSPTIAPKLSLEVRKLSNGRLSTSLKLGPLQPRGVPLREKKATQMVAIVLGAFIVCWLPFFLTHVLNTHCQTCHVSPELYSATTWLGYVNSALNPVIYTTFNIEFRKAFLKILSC

As to `[Cl-].[Cl-].[Zn+2]` [ZINC CHLORIDE], the IC50 entry is “Not Active” in [1]; “Not Active” on D(3) dopamine receptor; “Not Active” in assay [2]; 1880 nM in [3]; “Not Active” in assay [4]; “Not Active” in assay [5]. Besides, the IC50 result in assay [6], in assay [7] and in assay [8] was “Not Active” throughout. The Ki entry in assay [7] and in [8] was “Not Active” each time.
